According to patent publication US4471116A, “Substituted (10H-phenothiazin-10-L)-propyl-1-piperazines” (Hoffmann-La Roche Inc., priority 1982, dated 1984):
Where two headings read alike, the source gives them in different places.

How the values were obtained:
[1] = system: Confinement Motor Activity; experiment: Confinement Motor Activity; type: in vivo; settings: 168 h; Rat, PO, 7 Days Post-Drug; read-out: Confinement Motor Activity DD50
[2] = target: T1, 3H--Spiroperidol Binding-Caudate (Rattus norvegicus, UniProt P61169); experiment: biochemical
T1 construct: from tissue; host or cells: caudate (brain)
T1 sequence (P61169 whole entry): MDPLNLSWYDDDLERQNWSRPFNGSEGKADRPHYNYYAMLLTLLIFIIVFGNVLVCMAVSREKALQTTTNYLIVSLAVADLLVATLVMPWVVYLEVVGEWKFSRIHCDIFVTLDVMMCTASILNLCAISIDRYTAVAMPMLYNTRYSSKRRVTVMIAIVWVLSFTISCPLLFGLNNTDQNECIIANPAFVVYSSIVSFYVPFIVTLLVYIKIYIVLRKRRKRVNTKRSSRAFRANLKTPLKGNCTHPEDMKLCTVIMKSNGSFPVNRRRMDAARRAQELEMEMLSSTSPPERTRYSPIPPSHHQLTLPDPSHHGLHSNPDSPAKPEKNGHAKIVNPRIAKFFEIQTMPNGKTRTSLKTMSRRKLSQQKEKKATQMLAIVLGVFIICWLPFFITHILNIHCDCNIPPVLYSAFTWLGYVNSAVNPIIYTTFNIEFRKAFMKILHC

[3] = system: Dopamine Turnover-Brain Limbic and Remainder; experiment: Dopamine Turnover-Brain, Limbic and Remainder; type: in vivo; settings: Rat, 40 mg/kg PO, 7 Days Post-Drug
[4] = system: Dopamine Turnover-Brain Caudate; experiment: Dopamine Turnover-Brain, Caudate; type: in vivo; settings: Rat, 40 mg/kg PO, 7 Days Post-Drug
avoidance behavior = experiment: Discrete Avoidance - Rats (avoidance block / escape block); type: in vivo, rat; settings: for Discrete Avoidance, % Block: Rats, 40 mg/kg, oral
Description: For example, by one procedure, trained rats are placed in experimental chambers equipped with a response lever, a steel grid floor for delivery of electric shock and a loudspeaker for presentation of auditory stimuli. […] The rats can terminate a trial at any point by depression of the response lever. A response during the initial fifteen-second warning tone ends the trial before shock delivery and is considered an avoidance response, while a response occurring during shock delivery is an escape response. Trials are presented every two minutes during a one-hour test session (30 trials per session). […] Compounds are administered to a minimum of three to four rats at each dose level over a range of doses. Rats receive vehicle alone, during control sessions prior to drug administration. Each rat is tested daily or weekly, after a single drug administration, until avoidance behavior returns to pre-drug baseline levels. The session is divided into three consecutive twenty minute (ten trial) segments. Response counts are summed over all subjects at a given dose within each segment. […] This number is expressed as a percentage of the total trials within the segment. […] The lowest dose which produced a 20% block of escape responding (EBD 20) is read from a graphic dose-effect plot. In obtaining these values, percent effect is plotted against the log dose.

Serum Prolactin = Serum Prolactin Levels (Rats); type: in vivo, rat; settings: 15 mg/kg, oral
[5] = system: Apomorphine Induced Emesis; experiment: Apomorphine Induced Emesis antagonism (Dogs); type: in vivo, dog; settings: for Apomorphine Induced Emesis % Antagonism: Dogs, 5 mg/kg, subcutaneous
[6] = Acute toxicity (LD50) in mice after a single dose; settings: mouse, in vivo
Continuous Avoidance [7] = experiment: Continuous Avoidance, % Decrease of Responding (Rats); type: in vivo, rat; settings: 40 mg/kg, oral
Pole-Climb Avoidance = experiment: Pole-Climb Avoidance, % Block; type: in vivo, rat; settings: Rats, 40 mg/kg, oral
Prolactin Secretion = Prolactin Secretion (in-vitro); type: cell-based; settings: Rat, read-out: Prolactin Secretion ID50
[8] = system: Amphetamine Induced Rotation; experiment: Amphetamine Induced Rotation antagonism (S. Nigra Lesioned Rats) / Rotation Antagonism; type: in vivo, rat; settings: for Amphetamine Induced Rotation % Antagonism: S. Nigra Lesioned Rats, 40 mg/kg, oral
revertant colonies = experiment: Ames procedure (mutagenicity)
Continuous Avoidance [9] = experiment: Continuous Avoidance (Squirrel Monkeys); type: in vivo, squirrel monkey; settings: for Continuous Avoidance, % Decrease of Responding: Squirrel Monkeys, 5 mg/kg, oral
[10] = target: T2, Dopamine Adenylate Cyclase (Rattus norvegicus, UniProt P18901); experiment: biochemical; settings: in-vitro, read-out: Dopamine Adenylate Cyclase Inhibition-Limbic IC50
T2 construct: from tissue; host or cells: limbic brain tissue
T2 sequence (P18901 whole entry): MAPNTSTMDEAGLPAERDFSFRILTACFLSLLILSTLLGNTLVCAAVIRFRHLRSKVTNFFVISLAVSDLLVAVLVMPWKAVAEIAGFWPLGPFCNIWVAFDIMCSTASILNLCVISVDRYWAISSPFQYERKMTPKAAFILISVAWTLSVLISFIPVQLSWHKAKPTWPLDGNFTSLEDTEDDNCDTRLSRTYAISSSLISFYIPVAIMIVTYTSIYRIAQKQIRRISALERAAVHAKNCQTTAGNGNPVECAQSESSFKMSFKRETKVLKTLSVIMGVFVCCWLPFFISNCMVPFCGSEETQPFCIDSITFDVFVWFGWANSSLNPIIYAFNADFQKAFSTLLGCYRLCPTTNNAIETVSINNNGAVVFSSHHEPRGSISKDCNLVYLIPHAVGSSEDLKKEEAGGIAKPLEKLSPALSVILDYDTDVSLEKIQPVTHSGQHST

CC(C)NC[C@H](O)COc1ccc(OCCN2CCN(CCCN3c4ccccc4Sc4ccc(Cl)cc43)CC2)cc1.Cl.Cl.Cl [Compound A, (S)-1-(1-methylethylamino)-3-[4-[2-[4-[3-(2-chloro-10H-phenothiazin-10-yl)propyl]piperazine-1-yl]ethoxy]phenoxy]-2-propanol trihydrochloride]
ED50 [1]: 19.6 mg/kg
IC50 [2]: 1.8 nM
Dopamine Turnover-Brain, Limbic and Remainder [3]: Not signif.
Dopamine Turnover-Brain, Caudate [4]: Signif. .uparw.
Duration of Sig. Activity (avoidance behavior; 40 mg/kg po): 8 weeks
Time of Peak Effect (avoidance behavior; 40 mg/kg po): 2 to 10 days
ED50 (avoidance behavior; 168 h, Rat, PO, 7 Days Post-Drug, read-out: Discrete Avoidance ABD50): 19 mg/kg
EBD20/ABD50 Ratio (avoidance behavior; Rat, PO, 7 Days Post-Drug): > 2.1
Discrete Avoidance, % Block (avoidance behavior; single administration, 1-4 hours): 40%
Discrete Avoidance, % Block (avoidance behavior; 1 week): 84%
Discrete Avoidance, % Block (avoidance behavior; 2-4 hours): 78%
Discrete Avoidance, % Block (avoidance behavior; 2 weeks): 80%
Discrete Avoidance, % Block (avoidance behavior; 3 weeks): 84%
Discrete Avoidance, % Block (avoidance behavior; 4 weeks): 82%
Discrete Avoidance, % Block (avoidance behavior; 5 weeks): 56%
Discrete Avoidance, % Block (avoidance behavior; 6 weeks): 50%
Discrete Avoidance, % Block (avoidance behavior; 7 weeks): 31%
Discrete Avoidance, % Block (avoidance behavior; 8 weeks): 30%
inhibition in vivo at 40 mg/kg (avoidance behavior; Rattus norvegicus, 1 h, 40 mg/kg po, 60 min. post-drug, read-out: Percentage Block of Avoidance, 60 min. post-drug): 40%
ED50 (avoidance behavior; Rattus norvegicus, po, 7-10 days after administration, read-out: ABD50): 13.5 mg/kg
inhibition in vivo at 40 mg/kg (avoidance behavior; Rattus norvegicus, 40 mg/kg po, 24 hrs. post-drug, read-out: Percentage Block of Avoidance, 24 hrs. post-drug): 77%
inhibition in vivo at 40 mg/kg (avoidance behavior; Rattus norvegicus, 40 mg/kg po, at the indicated duration, read-out: Avoidance block at Duration of Sig. Activity (AB)): 30%
inhibition in vivo at 40 mg/kg (avoidance behavior; Rattus norvegicus, 40 mg/kg po, at time of peak effect, read-out: Avoidance block at Time of Peak Effect (AB)): 90%
duration of neuroleptic effect (in words) (avoidance behavior; discrete avoidance procedure): several weeks
time of maximum neuroleptic activity after administration (avoidance behavior; p.o.): 7 to 10 days
Serum Prolactin Levels % Increase (Serum Prolactin; 1-4 hours): 215%
Serum Prolactin Levels % Increase (Serum Prolactin; 1 week): 525%
Serum Prolactin Levels % Increase (Serum Prolactin; 2-4 hours): 97%
Serum Prolactin Levels % Increase (Serum Prolactin; 3 weeks): 251%
Serum Prolactin Levels % Increase (Serum Prolactin; 4 weeks): 56%
ED50 ([5]; Canis lupus familiaris, 168 h, Dog, SC, 7 Days Post-Drug, read-out: Anti-Apomorphine Emesis ED50): < 5 mg/kg
Apomorphine Induced Emesis % Antagonism ([5]; 1-4 hours): 93%
Apomorphine Induced Emesis % Antagonism ([5]; 1 week): 100%
Apomorphine Induced Emesis % Antagonism ([5]; 2-4 hours): 100%
Apomorphine Induced Emesis % Antagonism ([5]; 2 weeks): 100%
Apomorphine Induced Emesis % Antagonism ([5]; 3 weeks): 100%
Apomorphine Induced Emesis % Antagonism ([5]; 4 weeks): 100%
Apomorphine Induced Emesis % Antagonism ([5]; 5 weeks): 100%
Apomorphine Induced Emesis % Antagonism ([5]; 6 weeks): 100%
Apomorphine Induced Emesis % Antagonism ([5]; 7 weeks): 56%
Apomorphine Induced Emesis % Antagonism ([5]; 8 weeks): 40%
LD50 at 24 h ([6]; ip, 24 hours): 77.5 mg/kg
LD50 at 168 h ([6]; po, 7 days): 45 mg/kg
Continuous Avoidance, % Decrease of Responding (Continuous Avoidance [7]; 1-4 hours): 0%
Continuous Avoidance, % Decrease of Responding (Continuous Avoidance [7]; 1 week): 97%
Continuous Avoidance, % Decrease of Responding (Continuous Avoidance [7]; 2-4 hours): 59%
Continuous Avoidance, % Decrease of Responding (Continuous Avoidance [7]; 2 weeks): 96%
Continuous Avoidance, % Decrease of Responding (Continuous Avoidance [7]; 3 weeks): 93%
Continuous Avoidance, % Decrease of Responding (Continuous Avoidance [7]; 4 weeks): 84%
Continuous Avoidance, % Decrease of Responding (Continuous Avoidance [7]; 5 weeks): 82%
Continuous Avoidance, % Decrease of Responding (Continuous Avoidance [7]; 6 weeks): 55%
Continuous Avoidance, % Decrease of Responding (Continuous Avoidance [7]; 7 weeks): 48%
Continuous Avoidance, % Decrease of Responding (Continuous Avoidance [7]; 8 weeks): 32%
Pole-Climb Avoidance, % Block (Pole-Climb Avoidance; 1-4 hours): 30%
Pole-Climb Avoidance, % Block (Pole-Climb Avoidance; 1 week): 50%
Pole-Climb Avoidance, % Block (Pole-Climb Avoidance; 2 weeks): 44%
Pole-Climb Avoidance, % Block (Pole-Climb Avoidance; 3 weeks): 11%
IC50 (Prolactin Secretion): 15 nM
ED50 ([8]; 168 h, Rat, PO, 7 Days Post-Drug): < 15 mg/kg
Amphetamine Induced Rotation % Antagonism ([8]; 1-4 hours): 14%
Amphetamine Induced Rotation % Antagonism ([8]; 1 week): 97%
Amphetamine Induced Rotation % Antagonism ([8]; 2 weeks): 95%
Amphetamine Induced Rotation % Antagonism ([8]; 3 weeks): 87%
Amphetamine Induced Rotation % Antagonism ([8]; 4 weeks): 87%
Amphetamine Induced Rotation % Antagonism ([8]; 5 weeks): 62%
Amphetamine Induced Rotation % Antagonism ([8]; 6 weeks): 28%
Amphetamine Induced Rotation % Antagonism ([8]; 7 weeks): 4%
revertant colonies (Ames) (revertant colonies): increased revertant colonies at the highest concentration tested
minimal effective dose (Continuous Avoidance [9]; Primates, 168 h, Squirrel Monkey, PO, 7 Days Post-Drug, read-out: Continuous Avoidance MED Shocks): < 5 mg/kg
Continuous Avoidance, % Decrease of Responding (Continuous Avoidance [9]; 1-4 hours): 0%
Continuous Avoidance, % Decrease of Responding (Continuous Avoidance [9]; 1 week): 35%
Continuous Avoidance, % Decrease of Responding (Continuous Avoidance [9]; 2-4 hours): 15%
Continuous Avoidance, % Decrease of Responding (Continuous Avoidance [9]; 2 weeks): 37%
Continuous Avoidance, % Decrease of Responding (Continuous Avoidance [9]; 3 weeks): 24%
IC50 [10]: 500 nM
